Experimental data taken from ChEMBL document CHEMBL3616451, “Design and synthesis of 11α-substituted bile acid derivatives as potential anti-tuberculosis agents” (Bioorg Med Chem Lett, 2015).
In brackets after ≈: the same amount, converted by molar mass. Activity calls are given as the source filed them. No cut-off for these calls is given here.

Tests used:
[1] = tested on: Mycobacterium tuberculosis; test: Anti-tubercular activity against rifampicin, isoniazid, ethambutol and pyrazinamide-sensitive Mycobacterium tuberculosis H37Ra ATCC 25177 assessed as growth inhibition at 10 ug/ml by XRMA method relative to control; assay type: functional; conditions: for inhibition of growth at 10 µg/mL: read-out: GI
Escherichia coli = test: Antibacterial activity against Escherichia coli […] assessed as growth inhibition at 30 ug/ml relative to control; assay type: functional; conditions: for inhibition of growth at 30 µg/mL: read-out: GI
THP-1 = test: (§1) Cytotoxicity against human THP1 cells after 48 hrs by MTT assay; assay type: cell-based; conditions: thp-1, 48 h
[2] = as §1; assay type: cell-based, THP-1; conditions: THP-1 cells
[3] = Cytotoxicity against human PANC1 cells after 48 hrs by MTT assay; assay type: cell-based, PANC-1; conditions: for GI50 at 48 h: PANC-1 cells; for GI90: panc-1, 48 h
Staphylococcus aureus = test: Antibacterial activity against Staphylococcus aureus ATCC 29213 assessed as growth inhibition at 30 ug/ml relative to control; assay type: functional
[4] = tested on: Mycobacterium tuberculosis; test: Anti-tubercular activity against rifampicin, isoniazid, ethambutol and pyrazinamide-sensitive dormant phage of Mycobacterium tuberculosis H37Ra ATCC 25177 infected in human THP1 cells by neutral red assay; assay type: functional, organism-based; conditions: H37Ra ATCC 25177, THP-1
[5] = tested on: Mycobacterium tuberculosis; test: Anti-tubercular activity against rifampicin, isoniazid, ethambutol and pyrazinamide-sensitive active phage of Mycobacterium tuberculosis H37Ra ATCC 25177 by serial dilution method; assay type: functional, organism-based
[6] = tested on: Mycobacterium tuberculosis; test: Anti-tubercular activity against rifampicin, isoniazid, ethambutol and pyrazinamide-sensitive active phage of Mycobacterium tuberculosis H37Ra ATCC 25177 infected in human THP1 cells by neutral red assay; assay type: functional, organism-based; conditions: H37Ra ATCC 25177, THP-1
[7] = tested on: Mycobacterium tuberculosis; test: Anti-tubercular activity against rifampicin, isoniazid, ethambutol and pyrazinamide-sensitive Mycobacterium tuberculosis H37Ra ATCC 25177 assessed as growth inhibition at 3 ug/ml by XRMA method relative to control; assay type: functional; conditions: for inhibition of growth at 3 µg/mL: read-out: GI
Pseudomonas fluorescens = test: Antibacterial activity against Pseudomonas fluorescens ATCC 13525 assessed as growth inhibition at 30 ug/ml relative to control; assay type: functional; conditions: for inhibition of growth at 30 µg/mL: read-out: GI
A549 = test: (§2) Cytotoxicity against human A549 cells after 48 hrs by MTT assay; assay type: cell-based; conditions: a549, 48 h
[8] = as §2; assay type: cell-based; conditions: A549 cells
[9] = tested on: Mycobacterium tuberculosis; test: Anti-tubercular activity against rifampicin, isoniazid, ethambutol and pyrazinamide-sensitive Mycobacterium tuberculosis H37Ra ATCC 25177 assessed as growth inhibition at 30 ug/ml by XRMA method relative to control; assay type: functional; conditions: read-out: GI
Bacillus subtilis = test: Antibacterial activity against Bacillus subtilis ATCC 23857 assessed as growth inhibition at 30 ug/ml relative to control; assay type: functional
[10] = tested on: Mycobacterium tuberculosis; test: Anti-tubercular activity against rifampicin, isoniazid, ethambutol and pyrazinamide-sensitive dormant phage of Mycobacterium tuberculosis H37Ra ATCC 25177 by serial dilution method; assay type: functional, organism-based

Row | Structure (SMILES) | inhibition of growth at 10 µg/mL [1] | GI90 (THP-1) | GI50 at 48 h [2] | GI50 at 48 h [3] | GI90 [3] | growth inhibition (GI) (Staphylococcus aureus) | inhibition of growth at 3 µg/mL [7] | GI90 (A549) | GI50 at 48 h [8] | inhibition of growth at 30 µg/mL [9] | inhibition of growth at 30 µg/mL (Escherichia coli) | inhibition of growth at 30 µg/mL (Pseudomonas fluorescens) | growth inhibition (GI) (Bacillus subtilis) | also measured
1 | CCCCCCc1cn([C@@H]2C(=O)[C@]3(C)[C@@H]([C@H](C)CCC(=O)OC)CC[C@H]3[C@H]3[C@H]2[C@@]2(C)CC[C@@H](OC(C)=O)C[C@H]2C[C@H]3OC(C)=O)nn1 | 96% | > 100 µg/mL | > 100 µg/mL | > 100 µg/mL | > 100 µg/mL | inactive | 91% | > 100 µg/mL | > 100 µg/mL | 97% | – | – | – | growth inhibition (GI) (Escherichia coli): inactive; IC50 [4]: 0.13 µg/mL (≈ 0.198 µM); IC90 [4]: 1.55 µg/mL (≈ 2.36 µM); IC50 [5]: 0.64 µg/mL (≈ 0.976 µM); IC90 [5]: 2.63 µg/mL (≈ 4.01 µM); IC50 [6]: 0.25 µg/mL (≈ 0.381 µM); IC90 [6]: 2.8 µg/mL (≈ 4.27 µM); growth inhibition (GI) (Pseudomonas fluorescens): inactive; inhibition of growth at 30 µg/mL (Bacillus subtilis; read-out: GI): 22.9%; IC50 [10]: 0.17 µg/mL (≈ 0.259 µM); IC90 [10]: 2.43 µg/mL (≈ 3.7 µM)
2 | CC(=O)O[C@H]1C(=O)[C@@]2(C)[C@H]([C@H](OC(=O)c3ccccc3)[C@]3(O)C[C@H](OC(=O)[C@H](O)[C@@H](NC(=O)c4ccccc4)c4ccccc4)C(C)=C1C3(C)C)[C@]1(OC(C)=O)CO[C@@H]1C[C@@H]2O [PACLITAXEL] | – | 5.814 µg/mL (≈ 6.81 µM) | 0.137 µg/mL (≈ 0.161 µM) | 0.128 µg/mL (≈ 0.15 µM) | 5.715 µg/mL (≈ 6.69 µM) | – | – | 0.0706 µg/mL (≈ 0.0827 µM) | 0.0035 µg/mL (≈ 0.0041 µM) | – | – | – | – | –
3 | COC(=O)CC[C@@H](C)[C@H]1CC[C@H]2[C@@H]3[C@H](OC(C)=O)C[C@@H]4C[C@H](OC(C)=O)CC[C@]4(C)[C@H]3CC(=O)[C@]12C | 28% | – | – | – | – | – | 13% | – | – | 34% | – | – | – | –
4 | COC(=O)CC[C@@H](C)[C@H]1CC[C@H]2[C@H]3[C@H]([C@H](N=[N+]=[N-])C(=O)[C@]12C)[C@@]1(C)CC[C@@H](OC(C)=O)C[C@H]1C[C@H]3OC(C)=O | – | – | – | – | – | – | – | – | – | 12% | – | – | – | growth inhibition (GI) [1]: inactive; growth inhibition (GI) [7]: inactive
5 | C[C@H](CCC(=O)O)[C@H]1CC[C@H]2[C@@H]3[C@H](O)C[C@@H]4C[C@H](O)CC[C@]4(C)[C@H]3C[C@H](O)[C@]12C [CHOLIC ACID] | 36% | – | – | – | – | – | – | – | – | 53% | – | – | – | growth inhibition (GI) [7]: inactive
6 | COC(=O)CC[C@@H](C)[C@H]1CC[C@H]2[C@H]3[C@H]([C@H](n4cc(-c5ccccn5)nn4)C(=O)[C@]12C)[C@@]1(C)CC[C@@H](OC(C)=O)C[C@H]1C[C@H]3OC(C)=O | 48% | – | – | – | – | inactive | 38% | – | – | 71% | 32.1% | 47.1% | inactive | –
7 | COC(=O)CC[C@@H](C)[C@H]1CC[C@H]2[C@H]3[C@H]([C@H](NC(=O)[C@H]4CCCN4)C(=O)[C@]12C)[C@@]1(C)CC[C@@H](OC(C)=O)C[C@H]1C[C@H]3OC(C)=O | 66% | – | – | – | – | inactive | 55% | – | – | 71% | 23.9% | 20.1% | inactive | –
8 | COC(=O)CC[C@@H](C)[C@H]1CC[C@H]2[C@H]3[C@H]([C@H](NC(=O)[C@H]4CCCN4C(=O)OC(C)(C)C)C(=O)[C@]12C)[C@@]1(C)CC[C@@H](OC(C)=O)C[C@H]1C[C@H]3OC(C)=O | 80% | > 100 µg/mL | 46 µg/mL (≈ 64.1 µM) | 15 µg/mL (≈ 20.9 µM) | > 100 µg/mL | inactive | 66% | > 100 µg/mL | 52 µg/mL (≈ 72.5 µM) | 94% | 26.8% | 61.5% | inactive | IC50 [4]: 1.32 µg/mL (≈ 1.84 µM); IC90 [4]: 23.8 µg/mL (≈ 33.3 µM); IC50 [5]: 3.62 µg/mL (≈ 5.05 µM); IC90 [5]: 27.5 µg/mL (≈ 38.3 µM); IC50 [6]: 1.96 µg/mL (≈ 2.73 µM); IC90 [6]: 27.3 µg/mL (≈ 38.1 µM); IC50 [10]: 2.25 µg/mL (≈ 3.14 µM); IC90 [10]: 27 µg/mL (≈ 37.7 µM)
